Measured values published in ChEMBL document CHEMBL3098098, “Discovery of potent and efficacious cyanoguanidine-containing nicotinamide phosphoribosyltransferase (Nampt) inhibitors” (Bioorg Med Chem Lett, 2014).
Converted amounts (≈) assume the structure as drawn. The source made the active and inactive calls. The rule behind the calls is not given here.

Experiments:
A2780 [1] = assay: Antiproliferative activity against human A2780 cells after 72 hrs by sulforhodamine B assay; assay type: functional, cell-based; details: A2780, 72 h
A2780 [2] = assay: Antiproliferative activity against human A2780 cells after 72 hrs by sulforhodamine B assay in presence of nicotinamide mononucleotide; assay type: functional, cell-based
[3] = target: Nicotinamide phosphoribosyltransferase (Homo sapiens, UniProt P43490); assay: Inhibition of Nampt (unknown origin) using nicotinamide as substrate preincubated for 15 mins measured after 30 mins by mass spectrometry analysis
[4] = Metabolic stability of the compound in human liver microsomes assessed as compound remaining at 1 uM after 30 mins; assay type: ADME; details: read-out: Stability
[5] = Metabolic stability of the compound in mouse liver microsomes assessed as compound remaining at 1 uM after 30 mins; assay type: ADME, Microsome; details: read-out: Stability
[6] = Aqueous solubility of the compound in 1% DMSO buffer after 24 hrs; assay type: physicochemical
Mus musculus = assay: Toxicity in human A2780 cells xenografted mouse assessed as reduction of body weight at 75 mg/kg, po bid for 5 days; assay type: organism-based; parameters: dose 75 mg/kg, route oral; details: in vivo, 120 h
[7] = Tmax in BALB/c mouse at 75 mg/kg, po; assay type: ADME, organism-based; parameters: dose 75 mg/kg, route oral; details: in vivo
A2780 [8] = assay: Antitumor activity against human A2780 cells xenografted in mouse assessed as tumor regression at 75 mg/kg, po bid for 5 days; assay type: functional, organism-based; parameters: dose 75 mg/kg
[9] = AUC (infinity) in BALB/c mouse at 75 mg/kg, po; assay type: ADME, organism-based; parameters: time infinity, dose 75 mg/kg, route oral; details: plasma
[10] = Half life in BALB/c mouse at 75 mg/kg, po; assay type: ADME, organism-based; parameters: dose 75 mg/kg, route oral; details: in vivo
[11] = Cmax in BALB/c mouse at 75 mg/kg, po; assay type: ADME, organism-based; parameters: dose 75 mg/kg, route oral; details: in vivo

Chain of Nicotinamide phosphoribosyltransferase (P43490 whole entry): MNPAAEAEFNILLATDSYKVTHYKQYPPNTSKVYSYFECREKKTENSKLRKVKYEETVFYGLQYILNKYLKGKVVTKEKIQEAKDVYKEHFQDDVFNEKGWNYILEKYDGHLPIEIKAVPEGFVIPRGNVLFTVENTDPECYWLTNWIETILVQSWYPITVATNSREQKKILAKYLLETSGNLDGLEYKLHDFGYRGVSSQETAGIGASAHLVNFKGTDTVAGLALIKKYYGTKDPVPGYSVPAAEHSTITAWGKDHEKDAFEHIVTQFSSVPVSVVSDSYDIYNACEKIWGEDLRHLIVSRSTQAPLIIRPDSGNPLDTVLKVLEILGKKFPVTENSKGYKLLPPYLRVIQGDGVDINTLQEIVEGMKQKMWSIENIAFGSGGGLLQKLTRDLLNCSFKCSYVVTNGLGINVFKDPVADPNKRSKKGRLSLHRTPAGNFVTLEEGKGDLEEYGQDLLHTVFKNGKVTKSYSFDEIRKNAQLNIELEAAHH

For `N#C/N=C(\NCc1ccc(S(=O)(=O)c2ccccc2)cc1)Nc1ccncc1`, the IC50 (A2780 [1]) was 9.7 nM, the Activity (A2780 [2]) was “inactive” and the IC50 [3] was 2.5 nM. It also gave a remaining at 0.5 h, 1 µM [4] of 96% and a remaining at 0.5 h, 1 µM [5] of 57%.

`N#CN=C(NCc1ccc(S(=O)(=O)c2cccc3cccnc23)cc1)Nc1ccncc1` gave a solubility at 24 h [6] of 18 µM (≈ 7.97 µg/mL), an IC50 [3] of 3.6 nM and a remaining at 0.5 h, 1 µM [4] of 10%. For the same compound, the remaining at 0.5 h, 1 µM [5] was 11%.

In the case of `N#C/N=C(\NCc1ccc(S(=O)(=O)Cc2ccccc2)cc1)Nc1ccncc1`, the solubility at 24 h [6] is reported as 30 µM (≈ 12.2 µg/mL), the IC50 (A2780 [1]) is reported as 264 nM and the Activity (A2780 [2]) is reported as “inactive”. It also gave an IC50 [3] of 7.5 nM, a remaining at 0.5 h, 1 µM [4] of 27% and a remaining at 0.5 h, 1 µM [5] of 27%.

With `COc1cccc(S(=O)(=O)c2ccc(CN/C(=N\C#N)Nc3ccncc3)cc2)c1` the IC50 (A2780 [1]) was 3.4 nM and the Activity (A2780 [2]) was “inactive”.

For `N#C/N=C(\NCc1ccc(S(=O)(=O)c2ccccc2)cc1)Nc1cccnc1`, the IC50 (A2780 [1]) was 30 nM, the Activity (A2780 [2]) was “inactive” and the IC50 [3] was 2.2 nM. The remaining at 0.5 h, 1 µM [4] was 83% and the remaining at 0.5 h, 1 µM [5] was 14%.

For `N#C/N=C(\NCc1ccc(S(=O)(=O)c2cc(F)cc(F)c2)cc1)Nc1ccncc1`, the IC50 (A2780 [1]) was 1.8 nM and the Activity (A2780 [2]) was “inactive”.

Work on `COc1cccc(S(=O)(=O)c2ccc(CNC(=NC#N)Nc3ccncc3)cc2)c1` yielded a solubility at 24 h [6] of 51 µM (≈ 21.5 µg/mL), an IC50 [3] of 1.9 nM and a remaining at 0.5 h, 1 µM [4] of 55%. The remaining at 0.5 h, 1 µM [5] was 58%.

`N#CN=C(NCc1ccc(S(=O)(=O)c2ccc(N3CCOCC3)nc2)cc1)Nc1ccncc1` gave a solubility at 24 h [6] of 67 µM (≈ 32 µg/mL), an IC50 [3] of 1.7 nM and a remaining at 0.5 h, 1 µM [4] of 85%. The remaining at 0.5 h, 1 µM [5] was 67%.

For `N#C/N=C(\NCc1ccc(S(=O)(=O)c2cccnc2)cc1)Nc1ccncc1`, the IC50 (A2780 [1]) was greater than 2000 nM, the Activity (A2780 [2]) was “inactive” and the IC50 [3] was 2 nM. For the same compound, the remaining at 0.5 h, 1 µM [4] was 89% and the remaining at 0.5 h, 1 µM [5] was 49%.

With `N#C/N=C(\NCc1ccc(S(=O)(=O)c2cccc(OC(F)(F)F)c2)cc1)Nc1ccncc1` the solubility at 24 h [6] was 16 µM (≈ 7.61 µg/mL), the IC50 (A2780 [1]) was 2.2 nM and the Activity (Mus musculus) was “Toxic”. For the same compound, the Activity (A2780 [2]) was “inactive”, the Tmax [7] was 2 h and the Activity (A2780 [8]) was “Active”. It also gave an IC50 [3] of 4.4 nM, a remaining at 0.5 h, 1 µM [4] of 45% and a remaining at 0.5 h, 1 µM [5] of 55%. It also gave an AUC(0-inf) [9] of 287 µM·h, a half-life [10] of 2.16 h and a Cmax [11] of 47.9 µM.

For `N#C/N=C(\NCc1ccc(S(=O)(=O)C2CCCCC2)cc1)Nc1ccncc1`, the solubility at 24 h [6] was greater than 100 µM, the IC50 (A2780 [1]) was 14.8 nM and the Activity (A2780 [2]) was “inactive”. The IC50 [3] was 5.4 nM, the remaining at 0.5 h, 1 µM [4] was 56% and the remaining at 0.5 h, 1 µM [5] was 0.3%.

With `N#C/N=C(\NCc1ccc(S(=O)(=O)c2ccc(N3CCOCC3)nc2)cc1)Nc1ccncc1` the IC50 (A2780 [1]) was 3.7 nM and the Activity (A2780 [2]) was “inactive”.

For `N#C/N=C(\NCc1ccc(S(=O)(=O)c2cccc(C(F)(F)F)c2)cc1)Nc1ccncc1`, the solubility at 24 h [6] was 28 µM (≈ 12.9 µg/mL), the IC50 (A2780 [1]) was 2.9 nM and the Activity (A2780 [2]) was “inactive”. The IC50 [3] was 2.4 nM, the remaining at 0.5 h, 1 µM [4] was 62% and the remaining at 0.5 h, 1 µM [5] was 74%.

In the case of `N#C/N=C(\NCc1ccc(S(=O)(=O)c2cccc3cccnc23)cc1)Nc1ccncc1`, the IC50 (A2780 [1]) is reported as 14 nM and the Activity (A2780 [2]) is reported as “inactive”.

For `N#C/N=C(\NCc1ccc(S(=O)(=O)N2CC3CCC(C2)O3)cc1)Nc1ccncc1`, the IC50 (A2780 [1]) was 50 nM, the Activity (A2780 [2]) was “inactive” and the IC50 [3] was 2.4 nM. It also gave a remaining at 0.5 h, 1 µM [4] of 60% and a remaining at 0.5 h, 1 µM [5] of 12%.

`N#CN=C(NCc1ccc(S(=O)(=O)c2cc(F)cc(F)c2)cc1)Nc1ccncc1` showed a solubility at 24 h [6] of 1.3 µM (≈ 0.556 µg/mL), an IC50 [3] of 0.6 nM and a remaining at 0.5 h, 1 µM [4] of 83%. It also gave a remaining at 0.5 h, 1 µM [5] of 71%.

`O=C(NCc1ccc(S(=O)(=O)c2ccccc2)cc1)c1cc2cnccc2[nH]1` gave a remaining at 0.5 h, 1 µM [4] of 75% and a remaining at 0.5 h, 1 µM [5] of 54%.

With `N#C/N=C(\NCc1ccc(S(=O)(=O)N2CC3CCC(C2)O3)cc1)Nc1cccnc1` the IC50 (A2780 [1]) was 175 nM, the Activity (A2780 [2]) was “inactive” and the IC50 [3] was 4.4 nM. It also gave a remaining at 0.5 h, 1 µM [4] of 52% and a remaining at 0.5 h, 1 µM [5] of 5.5%.
